# Tests used:
# [1] = Water solubility compared to ICG; type: physicochemical
# PC-3 cells = experiment: Endocytosis experiment; type: cell-based, human; settings: 37° C. vs 4° C., trypsin wash
# Experimental: PC-3 cells were incubated with 200 nM GGa-ICG or ssDNA-ICG in 200 μL binding buffer at 37° C. for 10 minutes to observe cell membrane binding. After 2 hours of incubation, the cells were treated with 0.25% trypsin or 0.1 mg/mL proteinase K at 37° C. for 10 minutes to observe internal binding.
# For inhibition of endocytosis, PC-3 cells were incubated with 200 nM GGa-ICG or ssDNA-ICG in 200 μL binding buffer at 4° C. for 2 hours to observe cell membrane binding. After 4 hours of incubation, the cells were treated with 0.25% trypsin or 0.1 mg/mL proteinase K at 37° C. for 10 minutes to observe internal binding.
# RWPE-1, MCF2, Hela cells = experiment: Cell binding by fluorescence microscope / flow cytometry, non-tumour prostate and other cells; type: cell-based, human; settings: 200 nM probe
# Experimental: Therefore, 200 nM of GGa-ICG and ssDNA-ICG were used to confirm their specific binding. The method is as follows: • a. The human prostate cancer cell lines PC-3, DU145, LNCaP, 22RV1, immortalized normal human prostate epithelial cell line RWPE1, and human cervical cancer cell line Hela, as well as MCF7 cells obtained from the American Type Culture Collection (ATCC), were used in this study. All cell lines were cultured at 37° C. and 5% CO2 in a humidified environment. […]
# After the cells reach a confluency of over 80%, they were passaged and grown for 24-48 hours until they reached a confluency of over 50%. They were then washed once with PBS (without Ca and Mg ions), twice with cold washing buffer, and incubated at room temperature (4° C. for the internalization inhibition group) for 30 minutes with the sample buffer containing near-infrared fluorescence probes GGa-ICG, ssDNA-ICG, and ICG to a final concentration of 200 nM (or as specified). The cells were observed under a fluorescence microscope or analyzed by flow cytometry after digestion with trypsin without EDTA. […]
substance,measurement,setting,value
"GGa-ICG: near-infrared probe: PSCA-binding nucleic acid aptamer GGa linked at 3′ to an ICG derivative dye (DNA TGCCACTACAGCTGGTTCGGTTTGGTGACTTCGTTCTTCGTTGTGGT; 3'-ICG dye, further chemistry not given here)",water solubility compared to existing ICG,[1],improved
same,mode of cell entry,PC-3 cells,enters cells through endocytosis
same,"binding affinity to RWPE-1, MCF2, Hela cells","RWPE-1, MCF2, Hela cells",significantly reduced binding affinity

# — US20240358862A1, “Synthesis Method and Application of a Near-infrared Probe GGa-ICG specific binding to PSCA” (Guangzhou Shiyun Biotechnology Co., Ltd, priority 2022, published 2024)
